The results in this text go back to patent US20250304596A1, “PYRAZINE DERIVATIVES AND USES THEREOF” (FOGHORN THERAPEUTICS INC., priority 2022, published 2025).

One assay deals with T1, HiBit-BRM fusion protein (Homo sapiens, UniProt P51531).
T1 construct: expressed in transfected cells
Description: HiBiT-BRM cell-based degradation assay (Nano-Glo HiBiT Lytic Detection, 24 h). The note with it: stable HeLa cell line expressing HiBiT-BRM; for DC50: read-out: BRM HiBit Degradation IC50. The method in brief: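 Luminescence from LgBiT complementation after lysis measured HiBiT-BRM levels in stably expressing HeLa cells. Compounds were dosed at up to 30 μM final, in 3-fold 10-point dilutions, for 24 h. Percent degradation was scaled between DMSO wells and wells treated with 2 μM standard BRM/BRG1 degrader.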

The target of assay [1] is T2, HiBit-BRG1 fusion protein (Homo sapiens, UniProt P51532).
T2 construct: expressed in transfected cells
Description: HiBiT-BRG1 cell-based degradation assay (Nano-Glo HiBiT Lytic Detection, 24 h). Conditions: stable HeLa cell line expressing HiBit-BRG1 and LgBit; for Dmax: read-out: BRG1 HiBit Degradation Maximum (%); for DC50: read-out: BRMG1 HiBit Degradation IC50. The method in brief:
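Degradation read by lytic NanoBiT luminescence after 24 h compound exposure of a stable HiBit-BRG1/LgBit HeLa line. Ten-point, 3-fold series in duplicate, top final dose 30 μM; DMSO and 2 μM standard degrader define 0% and 100% degradation.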

T1 sequence (P51531 whole entry, the tested form may be a part): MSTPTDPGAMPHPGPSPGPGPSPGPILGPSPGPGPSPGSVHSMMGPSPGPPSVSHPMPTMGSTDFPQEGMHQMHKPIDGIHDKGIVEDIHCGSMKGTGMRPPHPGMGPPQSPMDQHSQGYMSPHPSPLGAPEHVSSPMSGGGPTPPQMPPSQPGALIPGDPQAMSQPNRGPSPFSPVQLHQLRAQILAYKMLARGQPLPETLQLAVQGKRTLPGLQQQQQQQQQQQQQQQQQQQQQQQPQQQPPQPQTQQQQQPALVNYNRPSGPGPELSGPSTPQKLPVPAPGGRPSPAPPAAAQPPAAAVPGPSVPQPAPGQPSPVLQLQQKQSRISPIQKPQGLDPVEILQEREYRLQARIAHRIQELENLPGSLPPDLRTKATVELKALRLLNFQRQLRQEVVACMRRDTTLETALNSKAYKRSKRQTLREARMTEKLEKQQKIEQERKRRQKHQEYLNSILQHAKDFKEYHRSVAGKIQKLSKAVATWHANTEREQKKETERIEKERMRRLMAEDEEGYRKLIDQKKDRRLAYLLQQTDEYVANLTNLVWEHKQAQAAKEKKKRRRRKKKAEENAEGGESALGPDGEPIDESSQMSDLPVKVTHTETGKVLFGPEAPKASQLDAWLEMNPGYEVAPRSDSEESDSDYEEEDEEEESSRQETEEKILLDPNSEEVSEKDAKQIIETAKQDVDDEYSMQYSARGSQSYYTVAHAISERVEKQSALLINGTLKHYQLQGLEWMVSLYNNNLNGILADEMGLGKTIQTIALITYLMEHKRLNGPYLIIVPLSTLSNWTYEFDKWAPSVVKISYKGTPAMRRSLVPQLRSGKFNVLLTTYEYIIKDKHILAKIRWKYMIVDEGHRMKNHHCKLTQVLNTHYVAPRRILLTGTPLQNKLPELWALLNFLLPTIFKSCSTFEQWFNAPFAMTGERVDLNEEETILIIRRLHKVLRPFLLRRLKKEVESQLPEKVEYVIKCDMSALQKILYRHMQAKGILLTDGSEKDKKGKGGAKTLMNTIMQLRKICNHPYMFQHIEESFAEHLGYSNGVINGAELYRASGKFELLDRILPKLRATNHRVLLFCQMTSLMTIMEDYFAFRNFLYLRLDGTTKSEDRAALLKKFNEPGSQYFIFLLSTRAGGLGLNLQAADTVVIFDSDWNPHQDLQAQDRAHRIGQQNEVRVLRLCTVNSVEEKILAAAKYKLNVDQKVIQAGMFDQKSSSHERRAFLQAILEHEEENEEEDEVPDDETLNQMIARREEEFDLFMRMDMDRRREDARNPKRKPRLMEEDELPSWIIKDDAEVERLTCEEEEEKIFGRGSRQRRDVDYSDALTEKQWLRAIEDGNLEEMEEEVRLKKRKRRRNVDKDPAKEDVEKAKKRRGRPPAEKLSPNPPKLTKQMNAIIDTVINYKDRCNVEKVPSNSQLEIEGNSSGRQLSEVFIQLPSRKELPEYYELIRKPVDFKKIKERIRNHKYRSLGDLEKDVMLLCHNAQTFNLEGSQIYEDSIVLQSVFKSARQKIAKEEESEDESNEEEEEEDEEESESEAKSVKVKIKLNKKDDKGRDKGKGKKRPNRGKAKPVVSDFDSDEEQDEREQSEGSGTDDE
T2 sequence (P51532 whole entry, the tested form may be a part): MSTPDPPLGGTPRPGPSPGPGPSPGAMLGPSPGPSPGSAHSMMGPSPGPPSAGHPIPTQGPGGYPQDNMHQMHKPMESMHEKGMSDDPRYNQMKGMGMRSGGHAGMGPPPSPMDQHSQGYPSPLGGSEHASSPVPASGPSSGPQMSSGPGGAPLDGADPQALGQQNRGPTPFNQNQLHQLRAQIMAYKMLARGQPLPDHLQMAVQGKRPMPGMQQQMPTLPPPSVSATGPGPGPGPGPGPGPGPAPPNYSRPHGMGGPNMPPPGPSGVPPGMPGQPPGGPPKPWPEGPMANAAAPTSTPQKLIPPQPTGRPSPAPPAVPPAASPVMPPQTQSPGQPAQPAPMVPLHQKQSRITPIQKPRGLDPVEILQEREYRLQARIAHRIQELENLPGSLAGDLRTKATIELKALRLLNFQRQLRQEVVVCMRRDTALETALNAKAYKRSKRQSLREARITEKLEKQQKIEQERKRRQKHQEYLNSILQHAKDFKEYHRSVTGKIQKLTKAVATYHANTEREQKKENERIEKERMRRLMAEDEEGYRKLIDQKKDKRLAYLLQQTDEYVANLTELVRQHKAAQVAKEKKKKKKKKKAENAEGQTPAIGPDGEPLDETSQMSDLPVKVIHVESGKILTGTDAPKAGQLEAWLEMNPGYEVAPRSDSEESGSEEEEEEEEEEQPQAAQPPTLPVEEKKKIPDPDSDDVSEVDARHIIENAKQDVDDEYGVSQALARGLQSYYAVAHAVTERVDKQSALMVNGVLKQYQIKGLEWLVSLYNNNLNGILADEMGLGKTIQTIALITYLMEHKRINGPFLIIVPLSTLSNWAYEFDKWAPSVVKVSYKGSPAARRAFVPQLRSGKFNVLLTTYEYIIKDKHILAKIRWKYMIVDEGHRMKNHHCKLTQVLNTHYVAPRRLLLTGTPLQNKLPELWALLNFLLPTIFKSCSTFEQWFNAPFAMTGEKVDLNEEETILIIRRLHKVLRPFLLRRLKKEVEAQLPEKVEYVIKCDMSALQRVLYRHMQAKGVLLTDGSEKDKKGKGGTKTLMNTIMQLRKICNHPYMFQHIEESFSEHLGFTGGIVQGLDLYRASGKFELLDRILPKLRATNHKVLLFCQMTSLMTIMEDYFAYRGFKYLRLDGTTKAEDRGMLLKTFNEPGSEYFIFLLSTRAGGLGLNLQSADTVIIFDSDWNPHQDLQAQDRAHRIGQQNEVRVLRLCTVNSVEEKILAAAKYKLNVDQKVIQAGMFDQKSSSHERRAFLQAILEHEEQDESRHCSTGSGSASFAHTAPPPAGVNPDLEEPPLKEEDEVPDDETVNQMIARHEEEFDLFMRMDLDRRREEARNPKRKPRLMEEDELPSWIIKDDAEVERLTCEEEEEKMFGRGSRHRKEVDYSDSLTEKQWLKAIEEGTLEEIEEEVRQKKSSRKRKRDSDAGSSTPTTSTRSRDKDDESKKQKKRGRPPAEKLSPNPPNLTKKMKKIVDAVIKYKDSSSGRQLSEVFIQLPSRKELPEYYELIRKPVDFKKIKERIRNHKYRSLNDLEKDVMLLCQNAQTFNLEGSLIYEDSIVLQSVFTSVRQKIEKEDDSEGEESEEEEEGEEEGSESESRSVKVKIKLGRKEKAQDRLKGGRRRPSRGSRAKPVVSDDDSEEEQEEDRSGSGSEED

For `Cc1ncsc1-c1ccc([C@H](C)NC(=O)[C@@H]2C[C@@H](O)CN2C(=O)[C@@H](c2cc(N3CC[C@@H](c4sc5nnc(-c6ccccc6O)cc5c4C)C3)no2)C(C)C)cc1` [Compound 74, (2S,4R)-4-hydroxy-1-((R)-2-(3-((R)-3-(3-(2-hydroxyphenyl)-5-methylthieno[2,3-c]pyridazin-6-yl)pyrrolidin-1-yl)isoxazol-5-yl)-3-methylbutanoyl)-N-((S)-1-(4-(4-methylthiazol-5-yl)phenyl)ethyl)pyrrolidine-2-carboxamide], at HiBit-BRM fusion protein, the “BRM HiBit Degradation Maximum (%)” value is reported as “A (“A” indicates maximum degradation ≥75%)” and the DC50 is under 10 nM. Moreover, in assay [1], the Dmax was over 50% and the DC50 was over 10 nM.

For the compound `Cc1ncsc1-c1ccc([C@H](C)NC(=O)[C@@H]2C[C@@H](O)CN2C(=O)[C@@H](c2cc(-c3cnc(N4C[C@H]5C[C@@H](C4)[C@H]5c4cc5cc(-c6ccccc6O)nnc5s4)nc3)no2)C(C)C)cc1` [Compound 15, (2S,4R)-4-hydroxy-1-((R)-2-(3-(2-((1R,5S,6S)-6-(3-(2-hydroxyphenyl)thieno[2,3-c]pyridazin-6-yl)-3-azabicyclo[3.1.1]heptan-3-yl)pyrimidin-5-yl)isoxazol-5-yl)-3-methylbutanoyl)-N-((S)-1-(4-(4-methylthiazol-5-yl)phenyl)ethyl)pyrrolidine-2-carboxamide], at HiBit-BRM fusion protein, the “BRM HiBit Degradation Maximum (%)” value is “B (“B” indicates maximum degradation ≥50%)” and the DC50 was over 100 nM. Also, in assay [1], the Dmax was under 50% and the DC50 was over 1000 nM.

In the case of `Cc1ncsc1-c1ccc([C@H](C)NC(=O)[C@@H]2C[C@@H](O)CN2C(=O)[C@@H](c2cc(N3CCC4(CC3)CC(c3sc5nnc(-c6ccccc6O)cc5c3C)C4)no2)C(C)C)cc1` [Compound 45, (2S,4R)-4-hydroxy-1-((R)-2-(3-(2-(3-(2-hydroxyphenyl)-5-methylthieno[2,3-c]pyridazin-6-yl)-7-azaspiro[3.5]nonan-7-yl)isoxazol-5-yl)-3-methylbutanoyl)-N-((S)-1-(4-(4-methylthiazol-5-yl)phenyl)ethyl)pyrrolidine-2-carboxamide], on HiBit-BRM fusion protein, the “BRM HiBit Degradation Maximum (%)” value was “A (“A” indicates maximum degradation ≥75%)” and the DC50 was over 10 nM. Besides, in assay [1], the Dmax was under 50% and the DC50 is over 1000 nM.

As for `Cc1ncsc1-c1ccc([C@H](C)NC(=O)[C@@H]2C[C@@H](O)CN2C(=O)[C@@H](c2cc(-c3cnc(N4CCC(c5sc6nnc(-c7ccccc7O)cc6c5C)[C@@H](C)C4)nc3)no2)C(C)C)cc1` (stereo in doubt) [Compound 35, (2S,4R)-4-hydroxy-1-((R)-2-(3-(2-((3R,4R)-4-(3-(2-hydroxyphenyl)-5-methylthieno[2,3-c]pyridazin-6-yl)-3-methylpiperidin-1-yl)pyrimidin-5-yl)isoxazol-5-yl)-3-methylbutanoyl)-N-((S)-1-(4-(4-methylthiazol-5-yl)phenyl)ethyl)pyrrolidine-2-carboxamide], on HiBit-BRM fusion protein, the “BRM HiBit Degradation Maximum (%)” value is on record as “A (“A” indicates maximum degradation ≥75%)” and the DC50 was under 10 nM. Also, in assay [1], the Dmax was under 50% and the DC50 was over 1000 nM.

On to `Cc1ncsc1-c1ccc([C@H](C)NC(=O)[C@@H]2C[C@@H](O)CN2C(=O)[C@@H](c2cc(-c3cnc(N4CCN(c5sc6nnc(-c7ccccc7O)cc6c5C)CC4)nc3)no2)C(C)C)cc1` [Compound 53, (2S,4R)-4-hydroxy-1-((R)-2-(3-(2-(4-(3-(2-hydroxyphenyl)-5-methylthieno[2,3-c]pyridazin-6-yl)piperazin-1-yl)pyrimidin-5-yl)isoxazol-5-yl)-3-methylbutanoyl)-N-((S)-1-(4-(4-methylthiazol-5-yl)phenyl)ethyl)pyrrolidine-2-carboxamide], for which, at HiBit-BRM fusion protein, the “BRM HiBit Degradation Maximum (%)” value is “A (“A” indicates maximum degradation ≥75%)” and the DC50 was under 10 nM. In assay [1], the Dmax is over 75% and the DC50 was over 10 nM.

On to `Cc1ncsc1-c1ccc([C@H](C)NC(=O)[C@@H]2C[C@@H](O)CN2C(=O)[C@@H](c2cc(-c3cnc(N4CCC(c5sc6nnc(-c7cccc(Cl)c7O)cc6c5C)CC4)nc3)no2)C(C)C)cc1` [Compound 29, (2S,4R)-1-((R)-2-(3-(2-(4-(3-(3-chloro-2-hydroxyphenyl)-5-methylthieno[2,3-c]pyridazin-6-yl)piperidin-1-yl)pyrimidin-5-yl)isoxazol-5-yl)-3-methylbutanoyl)-4-hydroxy-N-((S)-1-(4-(4-methylthiazol-5-yl)phenyl)ethyl)pyrrolidine-2-carboxamide], for which, at HiBit-BRM fusion protein, the “BRM HiBit Degradation Maximum (%)” value is “C (“C” indicates maximum degradation <50%)” and the DC50 is over 1000 nM. Also, in assay [1], the Dmax was under 50% and the DC50 was over 1000 nM.

For the compound `Cc1ncsc1-c1ccc([C@H](C)NC(=O)[C@@H]2C[C@@H](O)CN2C(=O)[C@@H](c2cc(N3CC4(CC(c5cc6cc(-c7ccccc7O)nnc6s5)C4)C3)no2)C(C)C)cc1` (single isomer, unassigned) [Compound 1], on HiBit-BRM fusion protein, the “BRM HiBit Degradation Maximum (%)” value is listed as “A (“A” indicates maximum degradation ≥75%)” and the DC50 is under 10 nM. Moreover, in assay [1], the Dmax is over 75% and the DC50 was over 10 nM.

Consider `Cc1nc(N2CCC(c3sc4nnc(-c5ccccc5O)cc4c3C)CC2)ccc1-c1noc([C@H](C(=O)N2C[C@H](O)C[C@H]2C(=O)N[C@@H](C)c2ccc(-c3scnc3C)cc2)C(C)C)c1C` [Compound 92, (2S,4R)-4-hydroxy-1-((R)-2-(3-(6-(4-(3-(2-hydroxyphenyl)-5-methylthieno[2,3-c]pyridazin-6-yl)piperidin-1-yl)-2-methylpyridin-3-yl)-4-methylisoxazol-5-yl)-3-methylbutanoyl)-N-((S)-1-(4-(4-methylthiazol-5-yl)phenyl)ethyl)pyrrolidine-2-carboxamide], for which, at HiBit-BRM fusion protein, the “BRM HiBit Degradation Maximum (%)” value is listed as “A (“A” indicates maximum degradation ≥75%)” and the DC50 was under 10 nM. Further, in assay [1], the Dmax is over 75% and the DC50 is over 10 nM.

For the compound `Cc1ncsc1-c1ccc([C@H](C)NC(=O)[C@@H]2C[C@@H](O)CN2C(=O)[C@@H](c2cc(N3CC4(CC(c5cc6nnc(-c7ccccc7O)cc6s5)C4)C3)no2)C(C)C)cc1` [Compound 69, (2S,4R)-4-hydroxy-1-((R)-2-(3-(6-(3-(2-hydroxyphenyl)thieno[3,2-c]pyridazin-6-yl)-2-azaspiro[3.3]heptan-2-yl)isoxazol-5-yl)-3-methylbutanoyl)-N-((S)-1-(4-(4-methylthiazol-5-yl)phenyl)ethyl)pyrrolidine-2-carboxamide], at HiBit-BRM fusion protein, the “BRM HiBit Degradation Maximum (%)” value was “A (“A” indicates maximum degradation ≥75%)” and the DC50 is under 10 nM. In assay [1], the Dmax was over 75% and the DC50 is under 10 nM.

Take `Cc1ncsc1-c1ccc([C@H](C)NC(=O)[C@@H]2C[C@@H](O)CN2C(=O)[C@@H](c2cc(-c3cnc(N4C[C@H]5C[C@@H]4C[C@@H]5c4cc5cc(-c6ccccc6O)nnc5s4)nc3)no2)C(C)C)cc1` [Compound 22, (2S,4R)-4-hydroxy-1-((R)-2-(3-(2-((1R,4S,5S)-5-(3-(2-hydroxyphenyl)thieno[2,3-c]pyridazin-6-yl)-2-azabicyclo[2.2.1]heptan-2-yl)pyrimidin-5-yl)isoxazol-5-yl)-3-methylbutanoyl)-N-((S)-1-(4-(4-methylthiazol-5-yl)phenyl)ethyl)pyrrolidine-2-carboxamide]: at HiBit-BRM fusion protein, the “BRM HiBit Degradation Maximum (%)” value was “A (“A” indicates maximum degradation ≥75%)” and the DC50 is under 10 nM. Besides, in assay [1], the Dmax was under 50% and the DC50 is over 1000 nM.

For the compound `Cc1ncsc1-c1ccc([C@H](C)NC(=O)[C@@H]2C[C@@H](O)CN2C(=O)[C@@H](c2cc(N3CCC4(CC3)CC(c3cc5cc(-c6ccccc6O)nnc5s3)C4)no2)C(C)C)cc1` [Compound 98, (2S,4R)-4-hydroxy-1-((R)-2-(3-(2-(3-(2-hydroxyphenyl)thieno[2,3-c]pyridazin-6-yl)-7-azaspiro[3.5]nonan-7-yl)isoxazol-5-yl)-3-methylbutanoyl)-N-((S)-1-(4-(4-methylthiazol-5-yl)phenyl)ethyl)pyrrolidine-2-carboxamide], at HiBit-BRM fusion protein, the “BRM HiBit Degradation Maximum (%)” value is reported as “A (“A” indicates maximum degradation ≥75%)” and the DC50 is over 10 nM. In assay [1], the Dmax is over 75% and the DC50 was over 100 nM.

As to `Cc1ncsc1-c1ccc([C@H](C)NC(=O)[C@@H]2C[C@@H](O)CN2C(=O)[C@@H](c2cc(N3CCC4(CC3)CC(c3cc5nnc(-c6ccccc6O)cc5s3)C4)no2)C(C)C)cc1` [Compound 12, (2S,4R)-4-hydroxy-1-((R)-2-(3-(2-(3-(2-hydroxyphenyl)thieno[3,2-c]pyridazin-6-yl)-7-azaspiro[3.5]nonan-7-yl)isoxazol-5-yl)-3-methylbutanoyl)-N—((S)-1-(4-(4-methylthiazol-5-yl)phenyl)ethyl)pyrrolidine-2-carboxamide], at HiBit-BRM fusion protein, the “BRM HiBit Degradation Maximum (%)” value is “A (“A” indicates maximum degradation ≥75%)” and the DC50 is under 10 nM. In assay [1], the Dmax is over 50% and the DC50 was over 100 nM.
